Measured values taken from publication PMC12518639, “Apomorphine is a novel necroptosis inhibitor targeting mixed lineage kinase domain-like protein oligomerization” (Cell Death Discovery, 2025).

Columns and labels:
[1] = system: APAP-induced liver injury in MLKL−/− C57BL/6 mice; experiment: APAP-induced liver injury in MLKL knockout mice; format: in vivo, mouse; conditions: 15 mg/kg, 400 mg/kg APAP, 24 h
Description: For APAP-induced liver injury, male BALB/c mice aged 6–8 weeks (Central Lab Animal Inc., S. Korea) and male MLKL^–/– C57BL/6 mice aged 6–8 weeks (Cyagen, Santa Clara, CA, USA) were administered acetaminophen (APAP; 400–500 mg/kg, 103-90-2, Sigma-Aldrich) by i.p. injection to induce liver injury in the presence or absence of APO after 12 h of fasting. After 24 h, the mice were sacrificed to obtain liver tissues for further analysis.
For liver tissue preparation, each liver was perfused with DPBS and then fixed in 4% paraformaldehyde (PFA; PC2031-050-00, Biosesang, S. Korea) before embedding in paraffin. Sections were stained with H&E, and necrotic areas were quantified using ImageJ by calculating the proportion of pale or unstained regions relative to the total tissue area. Mouse liver sections were subjected to IHC staining to assess distinct forms of cell death: an anti-p-MLKL antibody (MA5-32752, Thermo Fisher Scientific) to evaluate p-MLKL localization (necroptosis), a TUNEL assay kit (4810-30-K, R&D Systems) for apoptosis, and an anti-4-HNE antibody (GTX01087, GeneTex) for ferroptosis.
Fig. S6 APO reduces liver damage in MLKL^–/– mice. […] Necrotic areas were quantified as the proportion of unstained regions relative to the total tissue area. […] (D) Serum AST and ALT levels were evaluated to assess liver injury after APAP injection. […]

[2] = system: J774A.1 cells transfected with Wt-mMLKL (1–464)-gyrase; experiment: PI uptake after chemically induced mMLKL-gyrase dimerization; format: cell-based, mouse; conditions: 20 μM overnight
Description: PI uptake assays were performed in triplicate to evaluate pore formation on the plasma membrane. THP‑1 cells (2 × 10⁵ cells/well) were seeded in black-walled, clear-bottom 96-well plates and treated with TBZ (TNF, BV6, and z-VAD-FMK) in the presence or absence of candidate compounds for 8 h to induce necroptosis. […] PI (556463, BD Biosciences, San Jose, CA, USA) was added at a final concentration of 1 μg/mL for 10 min before measurement. Fluorescence was recorded using a Varioskan Flash 3001 plate reader (Thermo Fisher Scientific, Waltham, MA, USA).
J774A.1 cells were transfected with plasmids encoding mMLKL (1–464)-gyrase. mMLKL-gyrase expression was induced with 10 ng/mL doxycycline (Dox), followed by 700 nM coumermycin treatment for 4 h to promote dimerization. Then, Ox-APO (20 μM) was added, and the cells were incubated overnight. PI uptake was measured using a microplate reader, and the values were normalized to those of the untreated group. Data represent mean ± SEM (n = 3). **p < 0.01, ***p < 0.001, one-way ANOVA. The expression of mMLKL-gyrase was confirmed by SDS-PAGE of WCLs, followed by immunoblotting with the indicated antibodies. The arrowhead indicates endogenous MLKL, while the tailed arrow denotes the mMLKL–gyrase fusion protein.

THP-1 cells = experiment: Released HMGB1 in supernatant of TBZ-treated cells; format: cell-based, human; conditions: TBZ-treated THP-1, different concentrations, 8 h
Description: TBZ-treated cell supernatants were harvested and centrifuged using Amicon ultra centrifugal filters 10 kDa (UFC501096, Millipore, Billerica, MA, USA) at 4000×g for 1 h. The concentrated supernatants were analyzed using SDS-PAGE to assess released HMGB1 levels.

[3] = Auto-oxidation of APO in solution by real-time 1D 1H NMR; format: physicochemical; conditions: freshly dissolved in DPBS, 25 °C, 36 h
Description: Fig. 2 Effect of redox-sensitive APO on MLKL oligomerization. A Chemical structure of APO. APO undergoes auto-oxidation to form the oxidized form (Ox-APO), while the addition of DTT preserves the reduced form (Re-APO). The red highlights indicate the sites where APO loses hydrogen and electrons during the oxidation process. B Real-time 1D ^1H NMR spectra showing the degree of oxidation of APO. APO was dissolved from its powdered form in DPBS and incubated at 25 °C for 36 h. Real-time 1D ^1H NMR spectra were measured at a 2 h intervals after filtration through a 0.2 μm syringe filter to remove precipitates. […] C MLKL oligomerization is inhibited by APO. THP-1 cells were treated with TBZ and Re-APO or Ox-APO for 8 h. Western blot analysis of WCLs was performed under non-reducing and reducing conditions using the indicated antibodies. Percentage changes of p-MLKL oligomer band relative to GAPDH were shown. The p value for MLKL oligomer band intensity was calculated based on the average intensity of the tetramer and octamer bands. Octa octamer, Tetra tetramer, Mono monomer. Mean ± SEM (n = 3). **p < 0.001, ns not significant, one-way ANOVA. D THP-1 cells were treated with TBZ and Ox-APO or Re-APO for 8 h and then stained with DAPI and MLKL for confocal microscopy. […] The signal intensity of MLKL fluorescence from the plasma membrane to the cytosol was measured using FluoView FV1000 software. […]

Row | SMILES | hepatic damage (H&E, ALT, AST, TUNEL, 4-HNE) [1] | PI-positive cells after Dox and coumermycin stimulation [2] | HMGB1 release (THP-1 cells) | time to saturation of APO oxidation [3]
1 | CN1CCc2cccc3c4c(cc1c23)C=CC(=O)C4=O [Ox-APO] | significantly reduced | markedly reduced |  | 
2 | CN1CCc2cccc3c2[C@@H]1Cc1ccc(O)c(O)c1-3 [S62, (6aS)-6-methyl-5,6,6a,7-tetrahydro-4H-dibenzo[de,g]quinoline-10,11-diol] |  |  | dose-dependently decreased | 24 h
